“And” between values parts separate entries of the source, which are not always exact repeats. Equal values may be shown once.
Assays:
[1] = test system: winter wheat (TRZAW); assay: Greenhouse postemergence crop phytotoxicity, visual injury 20-22 d after spraying, winter wheat (TRZAW); type: in vivo, Triticum aestivum
Source text: (§1) Seeds of the desired test plant species were planted in a 90:10% v/v (volume/volume) mixture of PRO-MIX® BX (Premier Tech Horticulture, Quakertown, Pa., USA) and PROFILE® GREENS GRADE™ (Profile Products LLC, Buffalo Grove, Ill., USA) planting mixture, which typically has a pH of 5.2 to 6.2 and an organic matter content of at least 50 percent, in plastic pots with a surface area of 103.2 square centimeters (cm^2). In some aspects, to ensure good germination and healthy plants, a fungicide treatment and/or other chemical or physical treatment was applied. The plants were grown for 7-36 days (d) in a greenhouse with an approximate 14-hour (h) photoperiod which was maintained at about 23° C. during the day and 22° C. during the night. Nutrients and water were added on a regular basis and supplemental lighting was provided with overhead metal halide 1000-Watt lamps as necessary. The plants were employed for testing when they reached the second or third true leaf stage.
(§2) Emulsifiable concentrates of each of each pyridine carboxylate herbicide (Compound A or Compound B) were prepared at 100 grams acid equivalent per liter (g ae/L). The emulsifiable concentrates also included a safener, cloquintocet-mexyl, at 120 grams active ingredient per liter (g ai/L). An aliquot of each emulsifiable concentrate was placed in a 25 mL glass vial and diluted with an aqueous mixture of 1.25% (v/v) ACTIROB® B esterified rapeseed oil (Bayer Crop Science, Research Triangle Park, N.C., USA) or MSO® Concentrate with LECI-TECH® methylated soybean oil (Loveland Products, Loveland, Colo., USA) to obtain concentrated stock solutions at the highest application rate for each herbicide, based upon a 12 milliliter (mL) application volume at a rate of 187 liters per hectare (L/ha). The concentrated stock solutions were further diluted with an aqueous mixture of 1.25% v/v ACTIROB® B or MSO® Concentrate with LECI-TECH® to obtain stock solutions at reduced application rates for each herbicide. Spray solutions of the herbicide combinations (Compound A or Compound B plus VLCFA synthesis inhibitor herbicide) were prepared by adding weighed amounts or aliquots of the VLCFA synthesis inhibitor herbicide to the stock solutions of Compound A or Compound B to form 12-mL spray solutions in two-way combinations.
(§3) The spray solutions were applied to the plant material with an overhead Mandel track sprayer equipped with 8002E nozzles calibrated to deliver 187 L/ha over an application area of 0.503 square meters (m^2) at a spray height of 18 inches ([…] (cm)) above the average plant canopy. Control plants were sprayed in the same manner with the solvent blank. All pyridine carboxylate herbicide (component a) application rates are given as “g ae/ha” and all VLCFA synthesis inhibitor herbicide (component b) application rates are given as “g ai/ha.”
(§4) The treated plants and control plants were placed in a greenhouse as described above and watered by sub-irrigation to prevent wash-off of the test compounds. After 20-22 d, the condition of the test plants as compared with that of the control plants was determined visually and scored on a scale of 0 to 100 percent where 0 corresponds to no injury and 100 corresponds to complete kill.

[2] = test system: Amaranthus retroflexus (pigweed, AMARE); assay: Greenhouse postemergence herbicidal effect, visual injury 20-22 d after spraying, pigweed (AMARE); type: in vivo
Source text: as §1, §2, §3, §4

[3] = test system: Stellaria media (common chickweed, STEME); assay: Greenhouse postemergence herbicidal effect, visual injury 20-22 d after spraying, common chickweed (STEME); type: in vivo
Source text: as §1, §2, §3, §4

[4] = test system: Matricaria discoidea (pineapple weed, MATMT); assay: Greenhouse postemergence herbicidal effect, visual injury 20-22 d after spraying, pineapple weed (MATMT); type: in vivo
Source text: as §1, §2, §3, §4

[5] = test system: Polygonum convolvulus (wild buckwheat, POLCO); assay: Greenhouse postemergence herbicidal effect, visual injury 20-22 d after spraying, wild buckwheat (POLCO); type: in vivo
Source text: as §1, §2, §3, §4

[6] = test system: Veronica persica (Persian speedwell, VERPE); assay: Greenhouse postemergence herbicidal effect, visual injury 20-22 d after spraying, Persian speedwell (VERPE); type: in vivo
Source text: as §1, §2, §3, §4

[7] = test system: Anthemis arvensis (corn chamomile, ANTAR); assay: Greenhouse postemergence herbicidal effect, visual injury 20-22 d after spraying, corn chamomile (ANTAR); type: in vivo
Source text: as §1, §2, §3, §4

[8] = test system: Matricaria inodora (scentless chamomile, MATIN); assay: Greenhouse postemergence herbicidal effect, visual injury 20-22 d after spraying, scentless chamomile (MATIN); type: in vivo
Source text: as §1, §2, §3, §4

[9] = test system: Capsella bursa-pastoris (shepherd's purse, CAPBP); assay: Greenhouse postemergence herbicidal effect, visual injury 20-22 d after spraying, shepherd's purse (CAPBP); type: in vivo
Source text: as §1, §2, §3, §4

[10] = test system: Triticum aestivum (spring wheat, TRZAS); assay: Greenhouse postemergence crop phytotoxicity, visual injury 20-22 d after spraying, spring wheat (TRZAS); type: in vivo; conditions: for % visual injury Obs: TRZAS
Source text: as §1, §2, §3, §4

[11] = test system: Matricaria chamomilla (wild chamomile, MATCH); assay: Greenhouse postemergence herbicidal effect, visual injury 20-22 d after spraying, wild chamomile (MATCH); type: in vivo
Source text: as §1, §2, §3, §4

[12] = test system: Hordeum vulgare (spring barley, HORVS); assay: Greenhouse postemergence crop phytotoxicity, visual injury 20-22 d after spraying, spring barley (HORVS); type: in vivo; conditions: for % visual injury Obs: HORVS
Source text: as §1, §2, §3, §4

[13] = test system: Brassica napus (winter rape, BRSNW); assay: Greenhouse postemergence herbicidal effect, visual injury 20-22 d after spraying, winter rape (BRSNW); type: in vivo; conditions: for % visual injury Obs: BRSNW
Source text: as §1, §2, §3, §4

[14] = test system: Ipomoea hederacea (ivyleaf morningglory, IPOHE); assay: Greenhouse postemergence herbicidal effect, visual injury 20-22 d after spraying, ivyleaf morningglory (IPOHE); type: in vivo
Source text: as §1
Emulsifiable concentrates of each of each pyridine carboxylate herbicide (Compound A or Compound B) were prepared at 100 grams acid equivalent per liter (g ae/L). The emulsifiable concentrates also included a safener, cloquintocet-mexyl, at 120 grams active ingredient per liter (g ai/L). […]
as §4

[15] = test system: Salsola kali (Russian thistle, SASKR); assay: Greenhouse postemergence herbicidal effect, visual injury 20-22 d after spraying, Russian thistle (SASKR); type: in vivo; conditions: for % visual injury Obs: SASKR
Source text: as §1, §2, §3, §4

[16] = test system: Viola arvensis (field pansy, VIOAR); assay: Greenhouse postemergence herbicidal effect, visual injury 20-22 d after spraying, field pansy (VIOAR); type: in vivo
Source text: as §1, §2, §3, §4

## N#CCOC(=O)c1nc(-c2ccc3cc[nH]c3c2F)c(F)c(N)c1Cl [Compound A, cyanomethyl 4-amino-3-chloro-5-fluoro-6-(7-fluoro-1H-indol-6-yl)pyridine-2-carboxylate]
[1]; Compound A 7.5 g/ha
  % visual injury TRZAW Obs: 0%
[1]; Compound A 10 g/ha
  % visual injury TRZAW Obs: 0%
[1]; Compound A 15 g/ha
  % visual injury TRZAW Obs: 0%
[2]; Compound A 7.5 g/ha alone
  % visual injury Obs: 78% and 80% and 70% and 90%
[2]; Compound A 10 g/ha alone
  % visual injury Obs: 73% and 85% and 98%
[3]; Compound A 7.5 g/ha
  % visual injury STEME Obs: 85%
[3]; Compound A 10 g/ha
  % visual injury STEME Obs: 88%
[3]; Compound A 15 g/ha
  % visual injury STEME Obs: 89%
[4]; Compound A 7.5 g/ha
  % visual injury MATMT Obs: 20%
[4]; Compound A 10 g/ha
  % visual injury MATMT Obs: 20%
[4]; Compound A 15 g/ha
  % visual injury MATMT Obs: 63%
[5]; Compound A 7.5 g/ha
  % visual injury POLCO Obs: 65%
[5]; Compound A 10 g/ha
  % visual injury POLCO Obs: 78%
[5]; Compound A 15 g/ha
  % visual injury POLCO Obs: 85%
[6]; Compound A 7.5 g/ha
  % visual injury VERVE Obs: 78%
[6]; Compound A 10 g/ha
  % visual injury VERVE Obs: 90%
[6]; Compound A 15 g/ha
  % visual injury VERVE Obs: 93%
[7]; Compound A 7.5 g/ha
  % visual injury ANTAR Obs: 68%
[7]; Compound A 10 g/ha
  % visual injury ANTAR Obs: 70%
[7]; Compound A 15 g/ha
  % visual injury ANTAR Obs: 88%
[8]; Compound A 7.5 g/ha
  % visual injury MATIN Obs: 55%
[8]; Compound A 10 g/ha
  % visual injury MATIN Obs: 60%
[8]; Compound A 15 g/ha
  % visual injury MATIN Obs: 83%
[9]; Compound A 7.5 g/ha
  % visual injury CAPBP Obs: 45%
[9]; Compound A 10 g/ha
  % visual injury CAPBP Obs: 55%
[9]; Compound A 15 g/ha
  % visual injury CAPBP Obs: 55%
[10]; Compound A 7.5 g/ha
  % visual injury TRZAS Obs: 0%
[10]; Compound A 10 g/ha
  % visual injury TRZAS Obs: 0%
[10]; Compound A 15 g/ha
  % visual injury TRZAS Obs: 0%
[10]; Compound A 7.5 g/ha alone
  % visual injury Obs: 0%
[10]; Compound A 10 g/ha alone
  % visual injury Obs: 0%
[11]; Compound A 7.5 g/ha
  % visual injury MATCH Obs: 23%
[11]; Compound A 10 g/ha
  % visual injury MATCH Obs: 35%
[11]; Compound A 15 g/ha
  % visual injury MATCH Obs: 45%
[12]; Compound A 7.5 g/ha
  % visual injury HORVS Obs: 0%
[12]; Compound A 10 g/ha
  % visual injury HORVS Obs: 0%
[12]; Compound A 15 g/ha
  % visual injury HORVS Obs: 0%
[12]; Compound A 7.5 g/ha alone
  % visual injury Obs: 0% and 8%
[12]; Compound A 10 g/ha alone
  % visual injury Obs: 0%
[13]; Compound A 7.5 g/ha alone
  % visual injury Obs: 35%
[13]; Compound A 10 g/ha alone
  % visual injury Obs: 43% and 40%
[13]; Compound A 7.5 g/ha
  % visual injury BRSNW Obs: 60%
[13]; Compound A 10 g/ha
  % visual injury BRSNW Obs: 65%
[13]; Compound A 15 g/ha
  % visual injury BRSNW Obs: 73%
[14]; Compound A 7.5 g/ha alone
  % visual injury Obs: 5%
[14]; Compound A 10 g/ha alone
  % visual injury Obs: 0%
[15]; Compound A 7.5 g/ha
  % visual injury SASKR Obs: 50%
[15]; Compound A 10 g/ha
  % visual injury SASKR Obs: 60%
[15]; Compound A 15 g/ha
  % visual injury SASKR Obs: 63%
[15]; Compound A 7.5 g/ha alone
  % visual injury Obs: 60% and 45% and 38%
[15]; Compound A 10 g/ha alone
  % visual injury Obs: 63% and 60%
[16]; Compound A 7.5 g/ha
  % visual injury VIOAR Obs: 10%
[16]; Compound A 10 g/ha
  % visual injury VIOAR Obs: 13%
[16]; Compound A 15 g/ha
  % visual injury VIOAR Obs: 10%
